Test results: article PMC8704389, “New Insights into the Hypotensins from Tityus serrulatus Venom: Pro-Inflammatory and Vasopeptidases Modulation Activities” (Toxins, 2021)
“And” between values parts separate entries of the source, which are not always exact repeats. Equal entries are not always repeated. No end group written: not given here.

Legend:
ACE = biological target: T1, ACE (Oryctolagus cuniculus, UniProt P12822); test: Modulation of ACE activity, FRET substrate Abz-FRK(Dnp)P-OH; format: biochemical, rabbit; settings: 10 µM peptide, 3.0 ng ACE, 10 µM Abz-FRK(Dnp)P-OH, Tris HCl 100 mM, NaCl 50 mM, ZnCl2 10 µM, pH 7.0, 37 °C, 15 min, fluorescence 320/420 nm, triplicate
T1 construct: Angiotensin Converting Enzyme (ACE) from rabbit lung; purchased Sigma-Aldrich; host or cells: rabbit lung tissue
T1 sequence (P12822 34-1310): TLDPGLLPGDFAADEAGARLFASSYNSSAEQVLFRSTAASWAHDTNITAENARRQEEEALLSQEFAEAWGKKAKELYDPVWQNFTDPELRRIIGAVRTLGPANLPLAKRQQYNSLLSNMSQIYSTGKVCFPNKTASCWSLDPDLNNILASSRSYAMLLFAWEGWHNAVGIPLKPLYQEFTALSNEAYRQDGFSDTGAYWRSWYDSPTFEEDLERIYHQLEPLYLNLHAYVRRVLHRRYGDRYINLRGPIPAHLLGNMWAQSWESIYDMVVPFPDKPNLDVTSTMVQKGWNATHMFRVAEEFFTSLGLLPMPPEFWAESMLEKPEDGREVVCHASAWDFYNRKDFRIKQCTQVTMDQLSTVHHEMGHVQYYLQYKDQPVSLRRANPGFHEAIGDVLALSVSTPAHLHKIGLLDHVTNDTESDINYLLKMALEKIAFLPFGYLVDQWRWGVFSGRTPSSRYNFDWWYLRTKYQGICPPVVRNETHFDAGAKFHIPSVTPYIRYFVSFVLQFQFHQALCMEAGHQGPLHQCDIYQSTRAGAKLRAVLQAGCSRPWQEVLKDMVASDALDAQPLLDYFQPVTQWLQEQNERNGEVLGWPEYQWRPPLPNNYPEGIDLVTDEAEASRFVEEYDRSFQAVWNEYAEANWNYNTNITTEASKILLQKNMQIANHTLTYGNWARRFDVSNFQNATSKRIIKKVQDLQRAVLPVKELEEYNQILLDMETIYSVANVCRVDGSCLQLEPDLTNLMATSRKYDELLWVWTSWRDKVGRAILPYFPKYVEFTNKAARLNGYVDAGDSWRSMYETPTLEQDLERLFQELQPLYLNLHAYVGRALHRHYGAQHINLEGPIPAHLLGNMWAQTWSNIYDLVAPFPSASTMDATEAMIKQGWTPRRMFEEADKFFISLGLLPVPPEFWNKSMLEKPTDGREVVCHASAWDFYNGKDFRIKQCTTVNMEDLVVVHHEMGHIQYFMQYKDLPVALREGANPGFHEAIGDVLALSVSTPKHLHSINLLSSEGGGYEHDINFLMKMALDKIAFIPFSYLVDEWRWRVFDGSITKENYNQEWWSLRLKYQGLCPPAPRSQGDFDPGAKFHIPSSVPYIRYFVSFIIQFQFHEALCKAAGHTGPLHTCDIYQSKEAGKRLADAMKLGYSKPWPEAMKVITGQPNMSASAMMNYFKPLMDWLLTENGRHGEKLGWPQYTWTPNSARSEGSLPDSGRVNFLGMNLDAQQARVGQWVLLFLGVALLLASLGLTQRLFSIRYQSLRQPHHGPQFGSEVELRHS
Description: The results were obtained by incubating the enzymes with their FRET substrates (10 µM) in a final volume of 100 µL. For the ACE assays, the used buffer was Tris HCl 100 mM, NaCl 50 mM and ZnCl2 10 µM, pH 7.0. For NEP, the assays were made in Tris HCl 50 mM, pH 7.5 buffer. All reactions occurred at 37 °C, in a Victor 3 fluorimeter (Perkin–Elmer) adjusted for excitation and emission readings at 320 and 420 nm, respectively, for 15 min (one reader per minute). Results were obtained in triplicate and analyzed on GraFit 5 software.
For ACE assays, 10 µM of each peptide was incubated with 3.0 ng of peptidase and 10 µM of Abz-FRK (Dnp) P-OH substrate, in Tris HCl 100 mM, NaCl 50 mM and ZnCl2 10 µM, pH 7.0 buffer. For NEP, 10 µM of TsHpt-I or -II was incubated with 1.5 ng of peptidase, 3.5 µM Abz-RGFK (Dnp)-OH in Tris HCl 50 mM, pH 7.5 buffer. All reactions occurred at 37 °C, in a final volume of 100 µL, in a Victor 3 fluorimeter (Perkin–Elmer, Waltham, MA, USA) adjusted for excitation and emission readings at 320 and 420 nm, respectively, for 15 min (one reader per minute). Results were obtained in triplicate and analyzed using GraFit 5 (Erithacus software, East Grinstead, West Sussex, UK).

NEP = test: in vitro; format: in vitro ADME; settings: human, isolated enzyme neprilysin; 30 µM peptide, NEP 1.5 ng, Tris HCl 50 mM, pH 7.5, 4 h, 37 °C, RP-HPLC C18, UV 214 nm; read-out: hydrolysis products after incubation with NEP
Description: Figure 1 Analysis of the susceptibility to hydrolysis of the hypotensins over the vasopeptidases NEP and ACE. Incubations were carried out in Tris HCl 100 mM, NaCl 50 mM and ZnCl2 10 µM, pH 7.0, for the ACE assays, and, for the NEP assays, in Tris HCl 50 mM, pH 7.5 buffer, for four hours at 37 °C. (A) TsHpt-I control (black line) and after incubation with NEP (red line). (B) TsHpt-II control (black line) and TsHpt-II incubated with NEP (red line). (C) TsHpt-I control (black line) and incubated with ACE (red line). (D) TsHpt-II control (black line) and after incubation with ACE (red line). The samples of negative and experimental controls (A) TsHpt-I and (B) TsHpt-II are shown on the left and right, respectively. The hydrolysis products were considered ≤5%. The gradient used was 20% to 60% solvent B in 20 min, and 60% to 100% solvent B in 5 min (flow 1 mL/min, absorbance at 214 nm). Restek Ultra C-18 5 µm column, 250 × 4.6 mm.
The synthetic peptides TsHpt-I and TsHpt-II (30 µM) were incubated with ACE (3.0 ng), in Tris HCl 100 mM, NaCl 50 mM and ZnCl2 10 µM, pH 7.0 buffer, and NEP (1.5 ng), in Tris HCl 50 mM, pH 7.5 buffer, at 37 °C for 4 h. Samples containing only the synthetic peptides were used as the negative control. After incubation, samples were analyzed by reverse phase chromatography on RP-HPLC (Shimadzu, Kyoto, Japan), using a Restek Ultra C-18 column (5 µm, 250 × 4.6 mm). […]

Sequence	ACE Activation (%) (ACE)	metabolised at 4 h, 30 µM (NEP) [%]
AEIDFSGIPEDIIKEIKETNAKPPA [TsHpt-II]	46% and 44%	≤ 5
AEIDFSGIPEDIIKQIKETNAKPPA [TsHpt-I]	64%	≤ 5
